Read-outs that look alike come from different tables or passages of the source. *1 amine or outer side, *2 acyl side, *3 side chain or, on linkers, in order; H or OH if unused. Where a SMILES comes first, the peptide text is derived from it. Bridges are numbered along the chain shown (N, C = ends). Roman numbers before positions name the chains, in order. [ ]: non-standard residue; d: D form. The star is where a group is joined. 5FAM = O=C1OC2(c3ccc(O)cc3Oc3cc(O)ccc32)c2ccc(C(=O)*)cc21; Quinoxaline2carbonyl = O=C(c1cnc2ccccc2n1)*; Ethylenediamine = C(CN[*:2])N[*:1]; NMeV = CN[C@H](C(=O)O)C(C)C; NMeAbu = CC[C@H](NC)C(=O)O; NMeC = CN[C@@H](CS)C(=O)O; Abu = CC[C@H](N)C(=O)O; Dap = NC[C@H](N)C(=O)O

We go through 15 compounds from article PMC5666514 (Chemical Science, 2015).

In experiment [1] the test system is A-549 lung carcinoma cells. The experiment is described as follows: cells. The experiment is classed as cell-based, human. The protocol:
(§1) The twelve synthesized compounds were evaluated in vitro using the following four human cancer cell lines: cervical adenocarcinoma (HeLa), lung carcinoma (A-549), breast adenocarcinoma (SK-BR-3) and colon adenocarcinoma (HT-29). Cells were treated for 24 h with various concentrations of the compounds, and their cytotoxic activity was then assessed using the [3-(4,5-dimethylthiazol-2-yl)-2,5-diphenyltetrazolium] bromide (MTT) assay.[29] Analysis of the dose-response data obtained yielded IC50 (50% inhibitory concentration) values, which are detailed in Table 1.
(§2) Normally growing cells were plated at 5 × 10^3 cells per well into 96-well plates and incubated for 24 h at 37 °C to allow attachment to the surface. Samples were then added dissolved in a DMSO–PBS vehicle (less than 1% in culture medium) at a range of concentrations. Drugs were run in triplicate or greater and control wells contained appropriate percentages of vehicle. After 24 h of exposure, the antitumor effect was measured using a solution of MTT, which is bioreduced by viable cells into formazan. The formed crystals were solubilized using DMSO and the amount of formazan was measured by reading the absorbance at 570 nm. The absorbance of wells containing only the MTT reagent (the plate blank) was subtracted from all wells.
(§3) The IC50 values were determined by dose response curve analysis and statistical analysis using GraphPad Prism software version 5.0a. […]
(§4) mM L-glutamine and antibiotics.
(§5) in a humidified atmosphere containing 5% CO2. For sub-culturing, cells were detached from
(§6) 5 mL of fresh medium preheated at 37 °C. Cellular density was determined in a Neubauer

Experiment [2] concerns HT-29 colon adenocarcinoma cells. Description: cells. The experiment is classed as cell-based, human. The protocol:
as §1, §2, §3, §4, §5, §6

Experiment [3] has as its system SK-BR-3 breast adenocarcinoma cells. Description: cells. Format: cell-based, human. As to the method: as §1, §2, §3, §4, §5, §6
Experiment [4] concerns HeLa cervical adenocarcinoma cells. The experiment is described as follows: cells. Format: cell-based, human. As to the method:
as §1, §2, §3, §4, §5, §6

Experiment [5] relates to DNA (footprinting substrates MS1 and HexA). Description: DNase I footprinting. Format: binding. The settings on record: MS1 and HexA fragments; RZ compounds up to 500 μM (RZ2 up to 1 mM).
From the text: compounds are 500 M and 100 M; the concentrations for echinomycin are 10 M and 5 M.
[6] abbreviates: MTT assay, 24 h exposure, run in triplicate or greater, read-out: IC50, Cervix HeLa.
[7] abbreviates: MTT assay, 24 h exposure, run in triplicate or greater, read-out: IC50, Lung A-549.
Setting [8] is: MTT assay, 24 h exposure, run in triplicate or greater, read-out: IC50, Colon HT-29.
Where [9] appears, read: MTT assay, 24 h exposure, run in triplicate or greater, read-out: IC50, Breast SK-BR-3.

As for `COc1cccc2c1C(=O)c1c(O)c3c(c(O)c1C2=O)C[C@@](O)(C(=O)CO)C[C@@H]3O[C@H]1C[C@H](N)[C@H](O)[C@H](C)O1` [Doxorubicin, reference compound], the IC50 (in general, the concentration at which inhibition is half-maximal) in experiment [1] (Homo sapiens, A549, MTT assay, 24 h exposure, run in triplicate or greater, read-out: IC50, Lung A-549) stood at 0.6 µM; in experiment [2] (Homo sapiens, HT-29, MTT assay, 24 h exposure, run in triplicate or greater, read-out: IC50, Colon HT-29), 8.9 µM; in experiment [3] (Homo sapiens, SK-BR-3, MTT assay, 24 h exposure, run in triplicate or greater, read-out: IC50, Breast SK-BR-3), 0.5 µM; in experiment [4] (Homo sapiens, HeLa, MTT assay, 24 h exposure, run in triplicate or greater, read-out: IC50, Cervix HeLa), 5.4 µM.
Take `CC[C@@H](C(=O)N(C)[C@H](C(=O)N[C@H](C(=O)N1CCC[C@@H]1C(=O)NCC(=O)N[C@H](C(=O)N(C)[C@H](C(=O)N(C)[C@@H](CC)C(=O)NCCNC(=O)c1cnc2ccccc2n1)C(C)C)C(C)C)C(C)C)C(C)C)N(C)C(=O)[C@H](CO)NC(=O)c1cnc2ccccc2n1` [RZ1] (Quinoxaline2carbonyl-S[NMeAbu][NMeV]V[dP]GV[NMeV][NMeAbu]-{Ethylenediamine-Quinoxaline2carbonyl}): the IC50 in experiment [1] (24 h) stood at 51.2 µM; in experiment [2] (24 h) it was 88.4 µM; in experiment [3] (24 h), 96.7 µM; in experiment [4] (24 h), 42.2 µM.
In the case of `CC[C@H](NC(=O)[C@H](CNC(=O)c1ccc2c(c1)C(=O)OC21c2ccc(O)cc2Oc2cc(O)ccc21)NC(=O)c1cnc2ccccc2n1)C(=O)N[C@H](C(=O)N[C@H](C(=O)N1CCC[C@@H]1C(=O)NCC(=O)N[C@H](C(=O)N[C@H](C(=O)N[C@@H](CC)C(=O)NCCNC(=O)c1cnc2ccccc2n1)C(C)C)C(C)C)C(C)C)C(C)C` [RZ2CF] (Quinoxaline2carbonyl-[Dap](5FAM)[Abu]VV[dP]GVV[Abu]-{Ethylenediamine-Quinoxaline2carbonyl}), the IC50 in experiment [4] (setting [6]) stood at 16.7 µM.
For the compound `CC[C@@H](C(=O)NCCNC(=O)c1cnc2ccccc2n1)N(C)C(=O)[C@H](C(C)C)N(C)C(=O)[C@@H](NC(=O)CNC(=O)[C@H]1CCCN1C(=O)[C@@H](NC(=O)[C@H](C(C)C)N(C)C(=O)[C@H](CC)N(C)C(=O)[C@@H](CO)NC(=O)c1cnc2ccccc2n1)C(C)C)C(C)C` [RZ3] (Quinoxaline2carbonyl-[dS][NMeAbu][NMeV]V[dP]GV[NMeV][NMeAbu]-{Ethylenediamine-Quinoxaline2carbonyl}), the IC50 worked out at 65.8 µM in experiment [1] (24 h), 72.3 µM in experiment [2] (24 h), 98.1 µM in experiment [3] (24 h) and 93.8 µM in experiment [4] (24 h).
Regarding `CC[C@H](NC(=O)[C@@H](NC(=O)[C@@H](NC(=O)CNC(=O)[C@H]1CCCN1C(=O)[C@@H](NC(=O)[C@@H](NC(=O)[C@H](CC)NC(=O)[C@@H](CO)NC(=O)c1cnc2ccccc2n1)C(C)C)C(C)C)C(C)C)C(C)C)C(=O)NCCNC(=O)c1cnc2ccccc2n1` [RZ4] (Quinoxaline2carbonyl-[dS][Abu]VV[dP]GVV[Abu]-{Ethylenediamine-Quinoxaline2carbonyl}), the IC50 in experiment [1] (setting [7]) was 34.9 µM; in experiment [2] (setting [8]), 75 µM; in experiment [3] (setting [9]) it was over 100 µM; in experiment [4] (setting [6]) it was 30.9 µM.
Regarding `CC[C@@H](C(=O)N(C)[C@H](C(=O)N[C@H](C(=O)N1CCC[C@@H]1C(=O)NCC(=O)N[C@H](C(=O)N(C)[C@H](C(=O)N(C)[C@@H](CC)C(=O)NCCNC(=O)c1cnc2ccccc2n1)C(C)C)[C@@H](C)O)[C@@H](C)O)C(C)C)N(C)C(=O)[C@H](CO)NC(=O)c1cnc2ccccc2n1` [RZ5] (Quinoxaline2carbonyl-S[NMeAbu][NMeV]T[dP]GT[NMeV][NMeAbu]-{Ethylenediamine-Quinoxaline2carbonyl}), the IC50 in experiment [1] (24 h) is 70.7 µM; in experiment [2] (24 h) it was 84.8 µM; in experiment [3] (24 h), 84.6 µM; in experiment [4] (24 h), over 100 µM.
The like results for `CC[C@H](NC(=O)[C@H](CO)NC(=O)c1cnc2ccccc2n1)C(=O)N[C@H](C(=O)N[C@H](C(=O)N1CCC[C@@H]1C(=O)NCC(=O)N[C@H](C(=O)N[C@H](C(=O)N[C@@H](CC)C(=O)NCCNC(=O)c1cnc2ccccc2n1)C(C)C)[C@@H](C)O)[C@@H](C)O)C(C)C` [RZ6] (Quinoxaline2carbonyl-S[Abu]VT[dP]GTV[Abu]-{Ethylenediamine-Quinoxaline2carbonyl}) were, in that order, 84.5 µM, 83.1 µM, 55.3 µM and 45.6 µM.
Turning to `CC[C@@H](C(=O)NCCNC(=O)c1cnc2ccccc2n1)N(C)C(=O)[C@H](C(C)C)N(C)C(=O)[C@@H](NC(=O)CNC(=O)[C@H]1CCCN1C(=O)[C@@H](NC(=O)[C@H](C(C)C)N(C)C(=O)[C@H](CC)N(C)C(=O)[C@@H](CO)NC(=O)c1cnc2ccccc2n1)[C@@H](C)O)[C@@H](C)O` [RZ7] (Quinoxaline2carbonyl-[dS][NMeAbu][NMeV]T[dP]GT[NMeV][NMeAbu]-{Ethylenediamine-Quinoxaline2carbonyl}), the IC50 is 72.8 µM in experiment [1] (24 h), 90.7 µM in experiment [2] (24 h), over 100 µM in experiment [3] (24 h) and 84.5 µM in experiment [4] (24 h).
On the same counts, the results for `CC[C@H](NC(=O)[C@@H](NC(=O)[C@@H](NC(=O)CNC(=O)[C@H]1CCCN1C(=O)[C@@H](NC(=O)[C@@H](NC(=O)[C@H](CC)NC(=O)[C@@H](CO)NC(=O)c1cnc2ccccc2n1)C(C)C)[C@@H](C)O)[C@@H](C)O)C(C)C)C(=O)NCCNC(=O)c1cnc2ccccc2n1` [RZ8] (Quinoxaline2carbonyl-[dS][Abu]VT[dP]GTV[Abu]-{Ethylenediamine-Quinoxaline2carbonyl}) are 23.4 µM, 39.8 µM, 44.5 µM and 37.1 µM.
On the same counts, the results for `CC[C@H](C)[C@H](NC(=O)CNC(=O)[C@H]1CCCN1C(=O)[C@@H](NC(=O)[C@H](C(C)C)N(C)C(=O)[C@H](CC)N(C)C(=O)[C@H](CO)NC(=O)c1cnc2ccccc2n1)[C@@H](C)CC)C(=O)N(C)[C@H](C(=O)N(C)[C@@H](CC)C(=O)NCCNC(=O)c1cnc2ccccc2n1)C(C)C` [RZ9] (Quinoxaline2carbonyl-S[NMeAbu][NMeV]I[dP]GI[NMeV][NMeAbu]-{Ethylenediamine-Quinoxaline2carbonyl}) are 60.9 µM, 84.4 µM, 90.6 µM and 50.9 µM.
Take `CC[C@H](NC(=O)[C@H](CO)NC(=O)c1cnc2ccccc2n1)C(=O)N[C@H](C(=O)N[C@H](C(=O)N1CCC[C@@H]1C(=O)NCC(=O)N[C@H](C(=O)N[C@H](C(=O)N[C@@H](CC)C(=O)NCCNC(=O)c1cnc2ccccc2n1)C(C)C)[C@@H](C)CC)[C@@H](C)CC)C(C)C` [RZ10] (Quinoxaline2carbonyl-S[Abu]VI[dP]GIV[Abu]-{Ethylenediamine-Quinoxaline2carbonyl}): the IC50 came to 26.8 µM in experiment [1] (24 h), 53.8 µM in experiment [2] (24 h), 62.1 µM in experiment [3] (24 h) and 14.1 µM in experiment [4] (24 h).
Take `CC[C@H](C)[C@H](NC(=O)CNC(=O)[C@H]1CCCN1C(=O)[C@@H](NC(=O)[C@H](C(C)C)N(C)C(=O)[C@H](CC)N(C)C(=O)[C@@H](CO)NC(=O)c1cnc2ccccc2n1)[C@@H](C)CC)C(=O)N(C)[C@H](C(=O)N(C)[C@@H](CC)C(=O)NCCNC(=O)c1cnc2ccccc2n1)C(C)C` [RZ11] (Quinoxaline2carbonyl-[dS][NMeAbu][NMeV]I[dP]GI[NMeV][NMeAbu]-{Ethylenediamine-Quinoxaline2carbonyl}): the IC50 was 96.3 µM in experiment [1] (24 h), 64.7 µM in experiment [2] (24 h), 78.9 µM in experiment [3] (24 h) and 24.3 µM in experiment [4] (24 h).
On the same counts, the results for `CC[C@H](NC(=O)[C@@H](NC(=O)[C@@H](NC(=O)CNC(=O)[C@H]1CCCN1C(=O)[C@@H](NC(=O)[C@@H](NC(=O)[C@H](CC)NC(=O)[C@@H](CO)NC(=O)c1cnc2ccccc2n1)C(C)C)[C@@H](C)CC)[C@@H](C)CC)C(C)C)C(=O)NCCNC(=O)c1cnc2ccccc2n1` [RZ12] (Quinoxaline2carbonyl-[dS][Abu]VI[dP]GIV[Abu]-{Ethylenediamine-Quinoxaline2carbonyl}) are 82.2 µM, over 100 µM, 71.6 µM and 55.4 µM.
Regarding `CC(C)[C@H]1C(=O)OC[C@@H](NC(=O)c2cnc3ccccc3n2)C(=O)N[C@@H](C)C(=O)N(C)[C@H]2CSSC[C@@H](C(=O)N1C)N(C)C(=O)[C@H](C)NC(=O)[C@H](NC(=O)c1cnc3ccccc3n1)COC(=O)[C@H](C(C)C)N(C)C2=O` [Triostin A, reference compound] (I: Quinoxaline2carbonyl-[dS]A[NMeC][NMeV] / II: Quinoxaline2carbonyl-[dS]A[NMeC][NMeV]; ester I:1-II:C, I:C-II:1; disulfide I:3-II:3), the concentration for half-maximal inhibition (IC50) worked out at 23.5 µM in experiment [1] (setting [7]), 24.7 µM in experiment [2] (setting [8]), 23.1 µM in experiment [3] (setting [9]) and 18.8 µM in experiment [4] (setting [6]).
For the compound echinomycin, the “DNase I footprint (DNA binding)” value in experiment [5] is “Clear footprints”.
